Reference: publication PMC6017115, “Inhibitory Effect of Sauchinone on UDP-Glucuronosyltransferase (UGT) 2B7 Activity” (Molecules : A Journal of Synthetic Chemistry and Natural …, 2018)

Assays:
[1] = biological target: T1, UGT2B7 (Homo sapiens, UniProt P16662); experiment: Enzyme kinetic assay (Ki, Dixon plot) of UGT2B7-mediated zidovudine glucuronidation; details: for inhibition mode on UGT2B7: Dixon plot, visual inspection
T1 sequence (P16662 24-529): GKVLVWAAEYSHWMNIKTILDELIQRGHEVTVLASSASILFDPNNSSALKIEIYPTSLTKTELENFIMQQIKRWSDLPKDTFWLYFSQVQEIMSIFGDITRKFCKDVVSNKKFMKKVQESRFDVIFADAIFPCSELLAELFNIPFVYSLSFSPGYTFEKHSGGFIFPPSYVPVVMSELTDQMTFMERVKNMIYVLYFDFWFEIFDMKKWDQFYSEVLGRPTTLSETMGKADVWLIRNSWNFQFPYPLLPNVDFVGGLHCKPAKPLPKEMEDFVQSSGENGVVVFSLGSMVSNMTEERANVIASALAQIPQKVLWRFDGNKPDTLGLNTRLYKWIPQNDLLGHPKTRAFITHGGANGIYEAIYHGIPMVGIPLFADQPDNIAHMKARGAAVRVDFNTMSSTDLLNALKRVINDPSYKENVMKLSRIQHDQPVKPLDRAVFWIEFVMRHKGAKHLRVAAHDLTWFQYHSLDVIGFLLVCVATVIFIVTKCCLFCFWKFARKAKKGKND
Method: Inhibitory effects of sauchinone on UGT1A1, 1A3, 1A4, 1A6, 1A9, and 2B7 activities were evaluated using HLMs. […] Spiked volume of UGT cocktail set was 1% (v/v) of total volume of mixture. […] The reaction was initiated by adding 5 mM UDPGA to a final volume of 150 μL and incubated at 37 °C for 15 or 60 min in a thermomixer at 500 rpm. Each reaction was stopped by adding 150 μL of ice-cold methanol containing 50 ng/mL IS. These mixtures were then centrifuged (12,000 rpm for 10 min at 4 °C) and 5 μL of the supernatant was injected into a UPLC-MS/MS system. […] Their IC50 values were compared to that of sauchinone. All inhibitors were dissolved in methanol (except for hecogenin, which was dissolved in dimethyl sulfoxide) and serially diluted to the required concentrations using the same solutions. The final concentration of organic solvent of inhibitors was 1% (v/v). All studies were performed in triplicate and mean values were used in the analysis. The half maximal inhibition constant (IC50) of sauchinone on UGT isoforms was estimated using GraphPad program.
Based on IC50 values, Ki values of sauchinone for UGT1A6 and 2B7 were determined. Concentrations of 0–200 μM of sauchinone were used. Other procedures were similar to those mentioned above in the study of reversible inhibitory effects of sauchinone. Inhibitory characteristics of sauchinone were initially estimated by nonlinear least squares regression analysis and Ki values were determined by Dixon plots.

[2] = biological target: T2, UGT1A3 (Homo sapiens, UniProt P35503); experiment: Inhibition of UGT1A3 (chenodeoxy cholic acid glucuronidation) in human liver microsomes; assay type: in vitro ADME; details: substrate 15 μM chenodeoxy cholic acid, mean (minimum–maximum)
T2 construct: The reaction mixture containing 0.25 mg/mL protein of HLM; tissue Corning Life Sciences 452156; host or cells: pooled human liver microsomes, 50 donors
T2 sequence (P35503 29-534): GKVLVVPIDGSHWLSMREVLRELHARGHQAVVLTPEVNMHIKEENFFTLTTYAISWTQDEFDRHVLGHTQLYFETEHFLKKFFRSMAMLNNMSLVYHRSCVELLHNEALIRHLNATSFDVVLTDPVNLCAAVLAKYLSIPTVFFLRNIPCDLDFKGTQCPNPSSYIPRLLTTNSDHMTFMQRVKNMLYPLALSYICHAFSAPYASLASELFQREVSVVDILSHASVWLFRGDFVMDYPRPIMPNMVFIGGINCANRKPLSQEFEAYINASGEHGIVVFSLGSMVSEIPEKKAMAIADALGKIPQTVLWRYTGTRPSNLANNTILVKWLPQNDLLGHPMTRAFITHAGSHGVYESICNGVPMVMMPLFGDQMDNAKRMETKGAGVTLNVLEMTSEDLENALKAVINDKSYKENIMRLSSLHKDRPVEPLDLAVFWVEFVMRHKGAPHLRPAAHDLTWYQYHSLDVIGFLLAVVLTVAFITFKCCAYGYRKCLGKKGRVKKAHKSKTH
Method: (§1) Their IC50 values were compared to that of sauchinone. […] UGT-mediated activities in the presence of sauchinone as an inhibitor were expressed as percentages of corresponding control values (in absence of sauchinone). From percentages of control activity versus inhibitor concentrations, a sigmoid shaped curve was fitted to the data and IC50 as an enzyme inhibition parameter was calculated by fitting the Hill equation to the data using GraphPad Prism 5 (GraphPad Software Inc., San Diego, CA, USA).

[3] = biological target: T1, UGT2B7; experiment: Inhibition of UGT2B7 (zidovudine glucuronidation) in human liver microsomes; assay type: in vitro ADME; design: tissue Corning Life Sciences 452156; host or cells: pooled human liver microsomes
Method: as §1

[4] = biological target: T3, UGT1A6 (Homo sapiens, UniProt P19224); experiment: Inhibition of UGT1A6 (serotonin glucuronidation) in human liver microsomes; assay type: in vitro ADME
T3 construct: tissue Corning Life Sciences 452156; host or cells: pooled human liver microsomes
T3 sequence (P19224 27-532): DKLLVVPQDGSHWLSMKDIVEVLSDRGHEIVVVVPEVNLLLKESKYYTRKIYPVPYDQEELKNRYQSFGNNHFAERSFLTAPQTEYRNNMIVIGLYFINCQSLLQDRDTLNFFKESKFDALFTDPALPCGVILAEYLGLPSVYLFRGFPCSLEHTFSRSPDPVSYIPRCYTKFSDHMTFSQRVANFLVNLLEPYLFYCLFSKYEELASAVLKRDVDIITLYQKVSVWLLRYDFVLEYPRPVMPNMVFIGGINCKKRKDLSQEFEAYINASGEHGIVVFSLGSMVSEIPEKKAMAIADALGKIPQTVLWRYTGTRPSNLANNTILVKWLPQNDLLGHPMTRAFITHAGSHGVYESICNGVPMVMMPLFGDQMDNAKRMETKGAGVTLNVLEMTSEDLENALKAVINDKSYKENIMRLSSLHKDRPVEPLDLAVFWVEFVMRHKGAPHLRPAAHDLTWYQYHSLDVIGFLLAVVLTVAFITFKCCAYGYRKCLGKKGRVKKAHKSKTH
Method: as §1

[5] = test system: Ugt2b7; experiment: Ki for Ugt2b7 in mouse liver microsomes; assay type: in vitro ADME; details: our unpublished data

C[C@@H]1[C@H]2c3cc4c(cc3O[C@@]35OCOC3=CC(=O)[C@H](C[C@H]1C)[C@@H]25)OCO4 [Sauchinone]
Ki [1]: 524 nM | inhibition mode on UGT2B7 [1]: noncompetitively inhibited | inhibition mode on UGT2B7 ([1]; listed as sauchinone): noncompetitive inhibition mode | Vmax for UGT2B7-mediated zidovudine glucuronidation with inhibitor ([1]; sauchinone as inhibitor at 50 μM (decrease from 31.5 at 0 μM)): 0.495 μM/min/mg protein | IC50 [2]: 43900 nM | IC50 [3]: 279 nM | IC50 [4]: 758 nM | Ki [5]: 3340 nM
